The results in this text go back to patent US20230406859A1, “METHOTREXATE ANALOGS AND METHODS OF USE” (The United States of America, as represented by the …, priority 2020, published 2023).

The target of series [1] is T1, human DHFR-HiBiT fusion protein (Homo sapiens, UniProt P00374).
T1 construct: expressed in transfected cells; host or cells: HBL1 cells retrovirally infected with pBMN-Ires-Lyt-2 carrying DHFR-HiBiT
T1 sequence (P00374 with tags, fused parts or gaps): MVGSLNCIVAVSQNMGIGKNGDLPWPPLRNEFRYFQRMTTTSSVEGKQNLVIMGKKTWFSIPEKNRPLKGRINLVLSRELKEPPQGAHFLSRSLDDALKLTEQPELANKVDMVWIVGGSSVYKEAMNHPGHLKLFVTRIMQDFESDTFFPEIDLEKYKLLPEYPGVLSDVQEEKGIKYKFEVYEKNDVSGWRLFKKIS
Put plainly: DHFR-HiBiT assay (high-throughput DHFR abundance) in HBL1 cells. The note with it: for Dmax: % change in untreated cellular DHFR level (control), negative = degradation, positive = stabilization, HBL1, 24 h, read-out: efficacy (%). It counts as cell-based. An excerpt: The human DHFR-HiBiT construct was synthetized (Bio Basic) and cloned into the retroviral vector pBMN-Ires-Lyt-2 (provided by G. Nolan, Stanford University, Stanford, CA) which expresses the coding region of mouse CD8a (Lyt-2) using the restriction sites BamHI/XhoI. All constructs were sequenced to validate authenticity. Infected cells were positively selected based on murine CD8a expression using magnetic beads (Miltenyi Biotech).
Cell culture: Human embryonic kidney HEK293T cells were maintained in DMEM (Gibco) supplemented with 10% fetal bovine serum (Hyclone), 2 mmol/L 1-glutamine, HEPES (Gibco) and 100 U/mL penicillin/streptomycin (Invitrogen). The lymphoma cell line HBL1 were maintained in RPMI (Life Technology) supplemented with 5% fetal bovine serum (Hyclone), 2 mmol/L L-glutamine, HEPES (Gibco) and 100 U/mL penicillin/streptomycin (Invitrogen).
Transfection and retroviral infections: Transfections were performed using Lipofectamine 2000 (Invitrogen) according to the manufacturer's protocol. For retroviral infections, viruses were produced in HEK293T cells and used to infect HBL1 cell line. […] Supernatants containing the retrovirus were collected and filtered at 48- and 72-hours post-transfection. HBL1 cells were centrifuged and then resuspended with the retroviral supernatant with 8 μg/ml of polybrene. The cells were spin-infected twice on consecutive days at 2,500 rpm, at RT, for 90 minutes.
Lytic HiBiT Detection: Cells were plated in solid white 1536-well tissue culture plates (Greiner), at the concentration of 2000 cells/well. After treatment, an equal volume of Nano-Glo HiBiT Lytic Reagent (Promega) containing the substrate furimazine and Large BiT (LgBiT) was added to the cells according to the manufacturer's protocol. Cells were incubated for 10 min at room temperature, and luminescence was measured using a Perkin Elmer ViewLux microplate imager with 30 seconds of exposure time.

In another series the test system is HBL1 cell line. Kind of series: CellTiter-Glo cell viability (cytotox), HBL1 cell line, 72 hours. Format: cell-based. The note with it: HBL1 cell line, CellTiter-Glo; unit inferred. The method, then:
CellTiter-Glo viability assays: Five μL of cells (2500 cells) from the 12-well plate culture were plated into white 1536-well plates (Greiner, Monroe, NC, 789173-F) in 6 replicates. CellTiter-Glo Luminescent Cell Viability Assay (CTG) (Promega, G7572), 2.5 μL/well reagent was added with a BioRAPTR FRD (Beckman Coulter, Sykesville, MD), plates were incubated in the dark at ambient temperature for 10 min, and luminescence measured with a ViewLux 1430 Ultra HTS (Perkin Elmer, Waltham, MA).

By IC50 is commonly meant the midpoint of a concentration-inhibition curve. For the molecule `COC(=O)[C@H](CCC(=O)NCCCCCCCCNc1cccc2c1C(=O)N(C1CCC(=O)NC1=O)C2=O)NC(=O)c1ccc(N(C)Cc2cnc3nc(N)nc(N)c3n2)cc1` (some centres unmarked) [NCGC00687472], the Dmax in series [1] was 62.9%. In the series on HBL1 cell line, the IC50 worked out at 12.2 µM. The matching figures for `CN(Cc1cnc2nc(N)nc(N)c2n1)c1ccc(C(=O)N[C@@H](CCC(=O)NCCOCCOCCNc2cccc3c2C(=O)N(C2CCC(=O)NC2=O)C3=O)C(=O)O)cc1` (some centres unmarked) [NCGC00687555]: 56.9% and 3.93 µM.

On to `COC(=O)[C@H](CCC(=O)NCCCCCCCCNc1cccc2c1C(=O)N(C1CCC(=O)NC1=O)C2=O)NC(=O)CC[C@H](NC(=O)CC[C@H](NC(=O)c1ccc(N(C)Cc2cnc3nc(N)nc(N)c3n2)cc1)C(=O)O)C(=O)OC` (stereo partly drawn) [NCGC00687569, N2-(4-(((2,4-diaminopteridin-6-yl)methyl)(methyl)amino)benzoyl)-N5-((2S)-5-(((2S)-5-((8-((2-(2,6-dioxopiperidin-3-yl)-1,3-dioxoisoindolin-4-yl)amino)octyl)amino)-1-methoxy-1,5-dioxopentan-2-yl)amino)-1-methoxy-1,5-dioxopentan-2-yl)-L-glutamine], for which the Dmax in series [1] was 53.9%. Further, in the series on HBL1 cell line, the IC50 turned out to be 21.5 µM. Taken in the same sequence, the figures for `COC(=O)[C@H](CCC(=O)NCCCCCCCCNc1cccc2c1C(=O)N(C1CCC(=O)NC1=O)C2=O)NC(=O)CC[C@H](NC(=O)c1ccc(N(C)Cc2cnc3nc(N)nc(N)c3n2)cc1)C(=O)O` (some centres unmarked) [NCGC00687576] were 62.3% and 17 µM. As for `COC(=O)[C@H](CCC(=O)NCCCCCCCCNc1cccc2c1C(=O)N(C1CCC(=O)NC1=O)C2=O)NC(=O)CC[C@H](NC(=O)CC[C@H](NC(=O)CC[C@H](NC(=O)c1ccc(N(C)Cc2cnc3nc(N)nc(N)c3n2)cc1)C(=O)O)C(=O)OC)C(=O)OC` (stereo partly drawn) [NCGC00687807, (2S,7S,12S,17S)-2-(4-(((2,4-diaminopteridin-6-yl)methyl)(methyl)amino)benzamido)-29-((2-(2,6-dioxopiperidin-3-yl)-1,3-dioxoisoindolin-4-yl)amino)-7,12,17-tris(methoxycarbonyl)-5,10,15,20-tetraoxo-6,11,16,21-tetraazanonacosanoic acid], the Dmax in series [1] stood at 48.1%. The molecule also registered an IC50 in the series with HBL1 cell line of 20.8 µM. Taken in the same sequence, the figures for `COC(=O)[C@H](CCC(=O)NCCCCCCCCNc1cccc2c1C(=O)N(C1CCC(=O)NC1=O)C2=O)NC(=O)CC[C@H](NC(=O)CC[C@H](NC(=O)CC[C@H](NC(=O)CC[C@H](NC(=O)c1ccc(N(C)Cc2cnc3nc(N)nc(N)c3n2)cc1)C(=O)O)C(=O)OC)C(=O)OC)C(=O)OC` (stereo partly drawn) [NCGC00687811, (2S,7S,12S,17S,22S)-2-(4-(((2,4-diaminopteridin-6-yl)methyl)(methyl)amino)benzamido)-34-((2-(2,6-dioxopiperidin-3-yl)-1,3-dioxoisoindolin-4-yl)amino)-7,12,17,22-tetrakis(methoxycarbonyl)-5,10,15,20,25-pentaoxo-6,11,16,21,26-pentaazatetratriacontanoic acid] were 40.5% and 22.4 µM. As for `CN1C(=O)CCC(N2C(=O)c3cccc(NCCCCCCCCNC(=O)CC[C@H](NC(=O)c4ccc(N(C)Cc5cnc6nc(N)nc(N)c6n5)cc4)C(=O)O)c3C2=O)C1=O` (stereo partly drawn) [NCGC00687847, N2-(4-(((2,4-diaminopteridin-6-yl)methyl)(methyl)amino)benzoyl)-N5-(8-((2-(1-methyl-2,6-dioxopiperidin-3-yl)-1,3-dioxoisoindolin-4-yl)amino)octyl)-L-glutamine], the Dmax in series [1] was -93.2%. Further, the DC50 in series [1] (HBL1 cells expressing DHFR-HiBiT, 24 h, degradation or stabilization potency, average of N = 2-5, read-out: Ave EC50) is 3 µM. Besides, in the series on HBL1 cell line, the half-maximal inhibitory concentration (IC50) was determined as 25.4 µM. `CN(Cc1cnc2nc(N)nc(N)c2n1)c1ccc(C(=O)N[C@@H](CCC(=O)O)C(=O)NCCOCCOCCOCCNC(=O)COc2cccc3c2C(=O)N(C2CCC(=O)NC2=O)C3=O)cc1` (stereo partly drawn) [NCGC00690069, (17S)-17-(4-(((2,4-diaminopteridin-6-yl)methyl)(methyl)amino)benzamido)-1-((2-(2,6-dioxopiperidin-3-yl)-1,3-dioxoisoindolin-4-yl)oxy)-2,16-dioxo-6,9,12-trioxa-3,15-diazaicosan-20-oic acid] showed an IC50 with HBL1 cell line of 35.8 µM.

For the molecule `CN(Cc1cnc2nc(N)nc(N)c2n1)c1ccc(C(=O)NC(CCC(=O)O)C(=O)NCCCCCCCCNc2cccc3c2C(=O)N(C2CCC(=O)NC2=O)C3=O)cc1` (centres unmarked) [NCGC00690075, 4-(4-(((2,4-diaminopteridin-6-yl)methyl)(methyl)amino)benzamido)-5-((8-((2-(2,6-dioxopiperidin-3-yl)-1,3-dioxoisoindolin-4-yl)amino)octyl)amino)-5-oxopentanoic acid], the IC50 in the series with HBL1 cell line was 70 µM. Take `Nc1nc(N)c2nc(CN(CCCCCCNC(=O)CCOCCOCCOCCOCCOc3cccc4c3C(=O)N(C3CCC(=O)NC3=O)C4=O)c3ccc(C(=O)N[C@@H](CCC(=O)O)C(=O)O)cc3)cnc2n1` (some centres unmarked) [NCGC00690395, (4-(((2,4-diaminopteridin-6-yl)methyl)(1-((2-(2,6-dioxopiperidin-3-yl)-1,3-dioxoisoindolin-4-yl)oxy)-15-oxo-3,6,9,12-tetraoxa-16-azadocosan-22-yl)amino)benzoyl)glutamic acid]: the Dmax in series [1] was 32.8%. This molecule displayed an IC50 in the series with HBL1 cell line of 33.4 µM.

Molecule `Nc1nc(N)c2nc(CN(CCCCCCNC(=O)COc3cccc4c3C(=O)N(C3CCC(=O)NC3=O)C4=O)c3ccc(C(=O)N[C@@H](CCC(=O)O)C(=O)O)cc3)cnc2n1` (some centres unmarked) [NCGC00690396, (4-(((2,4-diaminopteridin-6-yl)methyl)(6-(2-((2-(2,6-dioxopiperidin-3-yl)-1,3-dioxoisoindolin-4-yl)oxy)acetamido)hexyl)amino)benzoyl)glutamic acid] came in with an IC50 in the series on HBL1 cell line of 26.6 µM. As to `Cc1ncsc1-c1ccc(CNC(=O)[C@@H]2C[C@@H](O)CN2C(=O)C(NC(=O)CCOCCOCCC(=O)NCCCCCCN(Cc2cnc3nc(N)nc(N)c3n2)c2ccc(C(=O)N[C@@H](CCC(=O)O)C(=O)O)cc2)C(C)(C)C)cc1` (stereo partly drawn) [NCGC00690397, (4-(((2,4-diaminopteridin-6-yl)methyl)(3-((2S,4R)-4-hydroxy-2-((4-(4-methylthiazol-5-yl)benzyl)carbamoyl)pyrrolidine-1-carbonyl)-2,2-dimethyl-5,14-dioxo-8,11-dioxa-4,15-diazahenicosan-21-yl)amino)benzoyl)glutamic acid], the Dmax in series [1] amounted to 64.1%. In the series with HBL1 cell line, this molecule gave an IC50 of 28.7 µM. In the case of `Cc1ncsc1-c1ccc(CNC(=O)[C@@H]2C[C@@H](O)CN2C(=O)C(NC(=O)CCOCCOCCOCCOCCC(=O)NCCCCCCN(Cc2cnc3nc(N)nc(N)c3n2)c2ccc(C(=O)N[C@@H](CCC(=O)O)C(=O)O)cc2)C(C)(C)C)cc1` (stereo partly drawn) [NCGC00690398, (4-(((2,4-diaminopteridin-6-yl)methyl)(3-((2S,4R)-4-hydroxy-2-((4-(4-methylthiazol-5-yl)benzyl)carbamoyl)pyrrolidine-1-carbonyl)-2,2-dimethyl-5,20-dioxo-8,11,14,17-tetraoxa-4,21-diazaheptacosan-27-yl)amino)benzoyl)glutamic acid], the Dmax in series [1] was determined as 26%. In the series on HBL1 cell line, this molecule displayed an IC50 of 36.7 µM.

`CN(Cc1cnc2nc(N)nc(N)c2n1)c1ccc(C(=O)N[C@@H](CCC(=O)O)C(=O)NCCOCCOCCNc2cccc3c2C(=O)N(C2CCC(=O)NC2=O)C3=O)cc1` (stereo partly drawn) [NCGC00690407, (4S)-4-(4-(((2,4-diaminopteridin-6-yl)methyl)(methyl)amino)benzamido)-5-((2-(2-(2-((2-(2,6-dioxopiperidin-3-yl)-1,3-dioxoisoindolin-4-yl)amino)ethoxy)ethoxy)ethyl)amino)-5-oxopentanoic acid] returned an IC50 with HBL1 cell line of 32.9 µM.

For `CN(Cc1cnc2nc(N)nc(N)c2n1)c1ccc(C(=O)N[C@@H](CCC(=O)O)C(=O)NCCCNc2cccc3c2C(=O)N(C2CCC(=O)NC2=O)C3=O)cc1` (stereo partly drawn) [NCGC00690412, (4S)-4-(4-(((2,4-diaminopteridin-6-yl)methyl)(methyl)amino)benzamido)-5-((3-((2-(2,6-dioxopiperidin-3-yl)-1,3-dioxoisoindolin-4-yl)amino)propyl)amino)-5-oxopentanoic acid], the IC50 in the series on HBL1 cell line was found to be 38.6 µM. The IC50 values of the last two molecules are within 1.5-fold of each other.
